# Reference: patent US8008292B2, “Condensed benzamide compounds and inhibitors of vanilloid receptor subtype 1 (VR1) activity” (Japan Tobacco Inc., priority 2004, dated 2011)
# Counter-ions that a name gives are not always drawn.
# Target: T1, human VR1 (Homo sapiens, UniProt Q8NER1)
# T1 construct: expressed in transfected cells
# Assay: Inhibition of Ca2+ entry in cells caused by proton, in rat glioma (C6BU1) cells stably expressing human VR1 (Fura 2 fluorescence)
# Format: cell-based
# Conditions: inhibition of proton-induced Ca2+ entry
# In short: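 Fura 2-loaded C6BU1 cells in 20 mM MES buffer pH 6.8 with added Ca2+ were preincubated 10 min with compound (final 1 μM to 0.1 nM, 1% DMSO). Proton stimulation brought pH to 5.5. Fluorescence rise was measured, and IC50 was derived from % inhibition versus DMSO control.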
# T1 sequence (Q8NER1 whole entry): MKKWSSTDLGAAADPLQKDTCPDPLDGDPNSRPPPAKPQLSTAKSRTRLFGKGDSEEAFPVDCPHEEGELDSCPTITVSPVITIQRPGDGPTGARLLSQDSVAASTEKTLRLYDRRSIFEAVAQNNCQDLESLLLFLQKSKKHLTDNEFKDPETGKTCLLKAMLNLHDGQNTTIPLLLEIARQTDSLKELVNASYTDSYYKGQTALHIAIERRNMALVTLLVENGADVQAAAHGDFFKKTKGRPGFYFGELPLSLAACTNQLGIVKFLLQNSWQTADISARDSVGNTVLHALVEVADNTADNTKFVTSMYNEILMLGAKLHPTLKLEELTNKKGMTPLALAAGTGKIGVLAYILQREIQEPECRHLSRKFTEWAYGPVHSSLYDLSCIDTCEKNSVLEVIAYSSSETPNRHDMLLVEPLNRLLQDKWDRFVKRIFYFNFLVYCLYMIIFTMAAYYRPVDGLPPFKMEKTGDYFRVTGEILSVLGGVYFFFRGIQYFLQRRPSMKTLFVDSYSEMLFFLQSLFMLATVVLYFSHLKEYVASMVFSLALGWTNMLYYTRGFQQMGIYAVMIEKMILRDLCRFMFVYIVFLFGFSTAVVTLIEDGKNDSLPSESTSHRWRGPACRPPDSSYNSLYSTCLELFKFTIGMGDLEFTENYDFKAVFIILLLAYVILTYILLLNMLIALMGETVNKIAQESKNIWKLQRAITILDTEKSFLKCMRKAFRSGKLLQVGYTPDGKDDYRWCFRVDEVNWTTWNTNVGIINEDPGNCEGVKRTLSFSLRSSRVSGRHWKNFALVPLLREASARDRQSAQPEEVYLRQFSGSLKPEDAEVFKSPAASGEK
row,IC50 [nM],SMILES
1,< 100,Cc1ccc(N2c3cccc(C(=O)Nc4ccc(OC(C)(C)C)c(F)c4)c3OC[C@@H]2CO)nc1 [Example 4-50]
2,< 100,Cc1ccc(N2c3cccc(C(=O)Nc4ccc(Br)c(F)c4)c3OC[C@@H]2CO)nc1 [Example 4-51]
3,< 100,O=C(Nc1ccc(OC(F)(F)F)cc1)c1cccc2c1OCC(CO)N2c1ncccc1Cl (stereo not shown) [Example 4-52]
4,< 100,O=C(Nc1ccc(C(F)(F)F)c(F)c1)c1cccc2c1OC[C@H](CO)N2c1ncccc1Cl [Example 4-53]
5,< 100,Cc1ccc(N2c3cccc(C(=O)Nc4ccc(OCC(C)C)c(F)c4)c3OC[C@@H]2CO)nc1 [Example 4-54]
6,< 100,Cc1ccc(N2c3cccc(C(=O)Nc4ccc(F)c(C(F)(F)F)c4)c3OC[C@@H]2CO)nc1 [Example 4-55]
7,< 100,CC(O)C1COc2c(C(=O)Nc3ccc(OC(F)(F)F)cc3)cccc2N1c1ncccc1Cl (stereo not shown) [Example 4-56]
8,100 to 1000,"CC(C)(C)c1ccc(NC(=O)c2cccc3c2OCCN3c2cnccn2)cc1 [Example 5-1, N-(4-tert-butylphenyl)-4-(pyrazine-2-yl)-3,4-dihydro-2H-benzo[1,4]oxazine-8-carboxamide]"
9,100 to 1000,"CCc1cnc(N2CCOc3c(C(=O)Nc4ccc(Cl)cc4)cccc32)nc1 [Example 5-2, N-(4-chlorophenyl)-4-(5-ethylpyrimidin-2-yl)-3,4-dihydro-2H-benzo[1,4]oxazine-8-carboxamide]"
10,< 100,"O=C(Nc1ccc(C(F)(F)F)cc1)c1cccc2c1OCCN2c1ccc(Cl)nn1 [Example 5-4, 4-(6-chloropyridazine-3-yl)-N-(4-trifluoromethylphenyl)-3,4-dihydro-2H-benzo[1,4]oxazine-8-carboxamide]"
11,100 to 1000,"Cc1csc(N2CCOc3c(C(=O)Nc4ccc(OC(F)(F)F)cc4)cccc32)n1 [Example 5-5, 4-(4-methylthiazol-2-yl)-N-(4-trifluoromethoxyphenyl)-3,4-dihydro-2H-benzo[1,4]oxazine-8-carboxamide]"
12,< 100,"Cc1cnc(N2CCOc3c(C(=O)Nc4ccc(OC(F)(F)F)cc4)cccc32)s1 [Example 5-6, 4-(5-methylthiazol-2-yl)-N-(4-trifluoromethoxyphenyl)-3,4-dihydro-2H-benzo[1,4]oxazine-8-carboxamide]"
13,< 100,"Cc1cnc(N2c3cccc(C(=O)Nc4ccc(OC(F)(F)F)cc4)c3OC[C@@H]2CO)s1 [Example 6-1, (S)-3-hydroxymethyl-4-(5-methylthiazol-2-yl)-N-(4-trifluoromethoxyphenyl)-3,4-dihydro-2H-benzo[1,4]oxazine-8-carboxamide]"
14,< 100,"Cc1cnc(N2c3cccc(C(=O)Nc4ccc(C(F)(F)F)cc4)c3OC[C@@H]2CO)s1 [Example 6-2, (S)-3-hydroxymethyl-4-(5-methylthiazol-2-yl)-N-(4-trifluoromethylphenyl)-3,4-dihydro-2H-benzo[1,4]oxazine-8-carboxamide]"
15,< 100,"Cc1cnc(N2c3cccc(C(=O)Nc4ccc(Cl)c(Cl)c4)c3OC[C@@H]2CO)s1 [Example 6-3, (S)-N-(3,4-dichlorophenyl)-3-hydroxymethyl-4-(5-methylthiazol-2-yl)-3,4-dihydro-2H-benzo[1,4]oxazine-8-carboxamide hydrochloride]"
16,< 100,Cc1cnc(N2c3cccc(C(=O)Nc4ccc(OC(C)C)c(F)c4)c3OC[C@@H]2CO)s1 [Example 6-4]
17,< 100,Cc1cnc(N2c3cccc(C(=O)Nc4ccc(OC(C)(C)C)c(F)c4)c3OC[C@@H]2CO)s1 [Example 6-5]
18,< 100,Cc1cnc(N2c3cccc(C(=O)Nc4ccc(OCC(C)C)c(F)c4)c3OC[C@@H]2CO)s1 [Example 6-6]
19,< 100,Cc1cnc(N2c3cccc(C(=O)Nc4ccc(Br)c(F)c4)c3OC[C@@H]2CO)s1 [Example 6-7]

row,IC50 [nM],SMILES
1,< 100,Cc1cnc(N2c3cccc(C(=O)Nc4ccc(F)c(C(F)(F)F)c4)c3OC[C@@H]2CO)s1 [Example 6-8]
2,< 100,Cc1cnc(N2c3cccc(C(=O)Nc4ccc(N5CCOCC5)c(F)c4)c3OC[C@@H]2CO)s1 [Example 6-9]
3,< 100,Cc1cnc(N2c3cccc(C(=O)Nc4ccc(C(F)(F)F)nc4)c3OC[C@@H]2CO)s1 [Example 6-10]
4,< 100,"Cc1cnc(N2c3cccc(C(=O)Nc4ccc(OC(F)(F)F)cc4)c3OC[C@@H]2CO)o1 [Example 6-11, (S)-3-hydroxymethyl-4-(5-methyloxazol-2-yl)-N-(4-trifluoromethoxyphenyl)-3,4-dihydro-2H-benzo[1,4]oxazine-8-carboxamide]"
5,< 100,"Cc1cnc(N2c3cccc(C(=O)Nc4ccc(C(F)(F)F)cc4)c3OC[C@@H]2CO)o1 [Example 6-12, (S)-3-hydroxymethyl-4-(5-methyloxazol-2-yl)-N-(4-trifluoromethylphenyl)-3,4-dihydro-2H-benzo[1,4]oxazine-8-carboxamide]"
6,< 100,"Cc1nc(N2c3cccc(C(=O)Nc4ccc(OC(F)(F)F)cc4)c3OC[C@@H]2CO)sc1C [Example 6-13, (S)-4-(4,5-dimethylthiazol-2-yl)-3-hydroxymethyl-N-(4-trifluoromethoxyphenyl)-3,4-dihydro-2H-benzo[1,4]oxazine-8-carboxamide]"
7,< 100,"Cc1nc(N2c3cccc(C(=O)Nc4ccc(C(F)(F)F)cc4)c3OC[C@@H]2CO)sc1C [Example 6-14, (S)-4-(4,5-dimethylthiazol-2-yl)-3-hydroxymethyl-N-(4-trifluoromethylphenyl)-3,4-dihydro-2H-benzo[1,4]oxazine-8-carboxamide]"
8,< 100,"COc1ccc(N2CCOc3c(C(=O)Nc4ccc(C(C)(C)C)cc4)cccc32)cc1 [Example 7-01, N-(4-tert-butylphenyl)-4-(4-methoxyphenyl)-3,4-dihydro-2H-benzo[1,4]oxazine-8-carboxamide]"
9,< 100,"COc1ccc(N2CCOc3c(C(=O)Nc4ccc(OCC(C)C)cc4)cccc32)cc1 [Example 7-02, N-(4-isobutyloxyphenyl)-4-(4-methoxyphenyl)-3,4-dihydro-2H-benzo[1,4]oxazine-8-carboxamide]"
10,< 100,"COc1ccc(N2CCOc3c(C(=O)Nc4ccc(Cl)cc4)cccc32)cc1 [Example 7-03, N-(4-chlorophenyl)-4-(4-methoxyphenyl)-3,4-dihydro-2H-benzo[1,4]oxazine-8-carboxamide]"
11,< 100,"O=C(Nc1ccc(OC(F)(F)F)cc1)c1cccc2c1OC[C@H](CO)N2c1ccccc1Cl [Example 7-04, (S)-4-(2-chlorophenyl)-3-hydroxymethyl-N-(4-trifluoromethoxyphenyl)-3,4-dihydro-2H-benzo[1,4]oxazine-8-carboxamide]"
12,< 100,O=C(Nc1ccc(C(F)(F)F)cc1)c1cccc2c1OC[C@H](CO)N2c1ccccc1Cl [Example 7-05]
13,< 100,O=C(Nc1ccc(C(F)(F)F)c(F)c1)c1cccc2c1OC[C@H](CO)N2c1ccccc1Cl [Example 7-06]
14,< 100,O=C(Nc1ccc(OC(F)(F)F)cc1)c1cccc2c1OC[C@H](CO)N2c1ccc(Cl)cc1 [Example 7-07]
15,< 100,COc1ccc(N2c3cccc(C(=O)Nc4ccc(OC(F)(F)F)cc4)c3OC[C@@H]2CO)cc1 [Example 7-08]
16,< 100,COc1ccc(N2c3cccc(C(=O)Nc4ccc(C(F)(F)F)cc4)c3OC[C@@H]2CO)cc1 [Example 7-09]
17,< 100,O=C(Nc1ccc(C(F)(F)F)cc1)c1cccc2c1OC[C@H](CO)N2c1ccc(Cl)cc1 [Example 7-10]
18,< 100,O=C(Nc1ccc(Cl)cc1)c1cccc2c1OC[C@H](CO)N2c1ccc(Cl)cc1 [Example 7-11]
